Measured values taken from PMC4764579, “Structural insights into the mechanism of activation of the TRPV1 channel by a membrane-bound tarantula toxin” (eLife, 2016).
Positions of bridges follow the written chain, without caps; N, C: chain ends. Residues, ends and D or L forms follow the SMILES beside them.

Assay: Membrane partitioning of toxins into lipid vesicles measured using Trp fluorescence
Assay type: physicochemical
Details: Trp fluorescence, excitation 280 nm, F/F0 at 320 nm; LUVs 1:1 POPC:POPG extruded through 100 nm; toxin 2 or 5 µM in 10 mM HEPES, 1 mM EDTA, pH 7.0; available lipid 60% of total; fit of partition function; ± SEM, n = 3 or 4; SEM
Excerpt: Motivated by the amphipathic character evident in the structure of DkTx, together with the placement of the toxin at the protein-lipid interface when bound to TRPV1, we investigated the interaction of DkTx and each of its two lobes with lipid membranes. For these experiments, we took advantage of the presence of a single conserved and solvent accessible Trp residue in loop 2 of both K1 and K2 (Figure 1C,D; W11 and W53), and used Trp fluorescence to monitor the partitioning of the toxin from the aqueous solution into the membrane environment ([Gupta et al., 2015]; [Ladokhin et al., 2000]; [Milescu et al., 2007]). When aqueous solutions of DkTx were excited at a wavelength of 280 nm, emission spectra with maxima at 353 nm were obtained (Figure 5A, left), as expected for Trp residues residing in such an environment. […] To quantify the extent of partitioning as a function of lipid concentration, we measured the relative fluorescence intensity in a blue-shifted region of the spectra (e.g. 320 nm) as a function of lipid concentration, and fit a partition function to the data to obtain a mole-fraction partition coefficient (Kx) of (2.3 ± 0.7) × 10^6, indicating an energetically favorable interaction of DkTx with lipid membranes (Figure 5A, right). This strong interaction of DkTx with membranes would facilitate binding of the toxin to the channel by increasing the local concentration of the toxin near the channel and by a reduction in the dimensionality of diffusion within the membrane ([Axelrod and Wang, 1994]).
Figure 5. Interaction of DkTx and toxin constructs with lipid membranes measured using Trp fluorescence. (A–E, left panel) Trp emission spectra of DkTx (A), K1 without linker (B), K2 (C), bivalent K1 (K1K1) (D) and bivalent K2 (K2K2) (E) in the absence (black) and presence (blue, 1.6 mM for DkTx, 2 mM for K1-ΔL and K1K1, and 3 mM for K2 and K2K2) of lipid vesicles (1:1 mix of POPC:POPG). (A–E, right panel) Relative fluorescence intensity at 320 nm (F/F0) as a function of available lipid concentrations (60% of total lipid concentration). Smooth curves correspond to partition functions with Kx = (2.3 ± 0.7) × 10^6 and F/F0^max = 2.65 ± 0.08 for DkTx, Kx = (3.9 ± 1.1) × 10^5 and F/F0^max = 2.63 ± 0.07 for K1-ΔL, Kx = (2.0 ± 0.3) × 10^4 and F/F0^max = 3.71 ± 0.40 for K2, Kx = (2.9 ± 0.3) × 10^6 and F/F0^max = 2.47 ± 0.03 for K1K1 and Kx = (8.1 ± 2) × 10^5 and F/F0^max = 2.77 ± 0.55 for K2K2. Error bars correspond to SEM (n = 3 or 4). Partition functions for K1-ΔL and K2 are shown as dotted lines for comparison in D and E, respectively. (F) Comparisons of mole-fraction partition coefficient (Kx) of toxins. 7G-DkTx denotes a construct of DkTx whose linker (PYVPVTT) is replaced with 7 Gly residues. Error bars correspond to SEM (n = 3 or 4). DOI: http://dx.doi.org/10.7554/eLife.11273.020 Figure 5—figure supplement 1. Interaction of K1-K2 chimeras with lipid membranes measured using Trp fluorescence. (A–E, left panel) Trp emission spectra of K1(D1N) (A), K1(K2L2) (B), K1(K2L3) (C), K1(K2L4) (D) and K1(K2CT) (E) in the absence (black) and presence (blue, 2 mM) of lipid vesicles (1:1 mix of POPC:POPG). (A–D, right panel) Relative fluorescence intensity at 320 nm (F/F0) as a function of available lipid concentrations (60% of total lipid concentration). Smooth curves correspond to partition functions with Kx = (1.76 ± 0.06) × 10^6 and F/F0^max = 3.79 ± 0.02 for K1(D1N), Kx = (4.77 ± 1.39) × 10^5 and F/F0^max = 1.31 ± 0.02 for K1(K2L2), Kx = (1.02 ± 0.04) × 10^4 and F/F0^max = 3.69 ± 0.02 for K1(K2L3), and Kx = (0.90 ± 0.04) × 10^6 and F/F0^max = 2.59 ± 0.02 for K1(K2L4). Error bar corresponds to SEM (n = 3 or 4). Smooth curve of K1-ΔL was shown as a dotted line for comparison throughout the figures. (F) Comparisons of mole-fraction partition coefficient (Kx) of toxins. Error bars correspond to SEM (n = 3 or 4). DOI: http://dx.doi.org/10.7554/eLife.11273.021 [drawing 10] […]

SMILES | mole-fraction partition coefficient (Kx)
CC[C@H](C)[C@@H]1NC(=O)[C@H](Cc2ccccc2)NC(=O)[C@H](CCC(=O)O)NC(=O)[C@H](CCSC)NC(=O)[C@@H]2CCCN2C(=O)[C@@H]2CSSC[C@@H]3NC(=O)[C@H](C(C)C)NC(=O)[C@H](CCC(=O)O)NC(=O)CNC(=O)[C@H](CCC(=O)O)NC(=O)[C@H](CCCCN)NC(=O)[C@H](C)NC(=O)[C@@H](NC(=O)[C@@H](N)CC(=O)O)CSSC[C@H](NC(=O)[C@H](CSSC[C@@H](C(=O)N[C@@H](CCCCN)C(=O)N[C@@H](CCCCN)C(=O)N[C@@H](Cc4ccc(O)cc4)C(=O)N[C@@H](CCCCN)C(=O)O)NC(=O)[C@H](Cc4c[nH]cn4)NC(=O)[C@@H]4CCCN4C1=O)NC(=O)[C@H](CCCCN)NC(=O)[C@H](CO)NC(=O)CNC(=O)[C@H](Cc1c[nH]c4ccccc14)NC(=O)CNC3=O)C(=O)N[C@@H](CC(=O)O)C(=O)N[C@@H](CC(C)C)C(=O)N[C@@H](CC(=O)O)C(=O)N[C@@H](CC(N)=O)C(=O)N[C@@H](Cc1ccccc1)C(=O)N[C@@H](Cc1ccc(O)cc1)C(=O)N2 [K1(K2L2)] (H-DCAKEGEVCGWGSKCCDLDNFYCPMEFIPHCKKYK-OH; disulfide 2-16, 9-23, 15-31) | (4.77 ± 1.39) × 10^5
CC[C@H](C)[C@@H]1NC(=O)[C@H](Cc2ccccc2)NC(=O)[C@H](CCC(=O)O)NC(=O)[C@H](CCSC)NC(=O)[C@@H]2CCCN2C(=O)[C@@H]2CSSC[C@@H]3NC(=O)[C@H](C(C)C)NC(=O)[C@H](CCC(=O)O)NC(=O)CNC(=O)[C@H](CCC(=O)O)NC(=O)[C@H](CCCCN)NC(=O)[C@H](C)NC(=O)[C@@H](NC(=O)[C@@H](N)CC(N)=O)CSSC[C@H](NC(=O)[C@H](CSSC[C@@H](C(=O)N[C@@H](CCCCN)C(=O)N[C@@H](CCCCN)C(=O)N[C@@H](Cc4ccc(O)cc4)C(=O)N[C@@H](CCCCN)C(=O)O)NC(=O)[C@H](Cc4c[nH]cn4)NC(=O)[C@@H]4CCCN4C1=O)NC(=O)[C@H](CCCCN)NC(=O)[C@H](CCCCN)NC(=O)CNC(=O)[C@H](Cc1c[nH]c4ccccc14)NC(=O)[C@H](CO)NC3=O)C(=O)N[C@@H](CC(=O)O)C(=O)N[C@@H](CC(C)C)C(=O)N[C@@H](CC(=O)O)C(=O)N[C@@H](CC(N)=O)C(=O)N[C@@H](Cc1ccccc1)C(=O)N[C@@H](Cc1ccc(O)cc1)C(=O)N2 [K1(D1N)] (H-NCAKEGEVCSWGKKCCDLDNFYCPMEFIPHCKKYK-OH; disulfide 2-16, 9-23, 15-31) | (1.76 ± 0.06) × 10^6
CC[C@H](C)[C@@H]1NC(=O)[C@H](Cc2ccccc2)NC(=O)[C@H](CCC(=O)O)NC(=O)[C@H](CCSC)NC(=O)[C@@H]2CCCN2C(=O)[C@@H]2CSSC[C@@H]3NC(=O)[C@H](C(C)C)NC(=O)[C@H](CCC(=O)O)NC(=O)CNC(=O)[C@H](CCC(=O)O)NC(=O)[C@H](CCCCN)NC(=O)[C@H](C)NC(=O)[C@@H](NC(=O)[C@@H](N)CC(=O)O)CSSC[C@H](NC(=O)[C@H](CSSC[C@@H](C(=O)N[C@@H](CCCCN)C(=O)N[C@@H](CCCCN)C(=O)N[C@@H](Cc4ccc(O)cc4)C(=O)N[C@@H](CCCCN)C(=O)O)NC(=O)[C@H](Cc4c[nH]cn4)NC(=O)[C@@H]4CCCN4C1=O)NC(=O)[C@H](CCCCN)NC(=O)[C@H](CCCCN)NC(=O)CNC(=O)[C@H](Cc1c[nH]c4ccccc14)NC(=O)[C@H](CO)NC3=O)C(=O)N[C@@H](CC(=O)O)C(=O)N[C@@H](CC(C)C)C(=O)N[C@@H](CC(=O)O)C(=O)N[C@@H](CC(N)=O)C(=O)N[C@@H](Cc1ccccc1)C(=O)N[C@@H](Cc1ccc(O)cc1)C(=O)N2 [K1-ΔL] (H-DCAKEGEVCSWGKKCCDLDNFYCPMEFIPHCKKYK-OH; disulfide 2-16, 9-23, 15-31) | (3.9 ± 1.1) × 10^5
CC[C@H](C)[C@@H]1NC(=O)[C@H](Cc2ccccc2)NC(=O)[C@H](C)NC(=O)[C@H](CC(C)C)NC(=O)[C@@H]2CCCN2C(=O)[C@@H]2CSSC[C@@H]3NC(=O)[C@H](C(C)C)NC(=O)[C@H](CCC(=O)O)NC(=O)CNC(=O)[C@H](CCC(=O)O)NC(=O)[C@H](CCCCN)NC(=O)[C@H](C)NC(=O)[C@@H](NC(=O)[C@@H](N)CC(=O)O)CSSC[C@H](NC(=O)[C@H](CSSC[C@@H](C(=O)N[C@@H](CCCCN)C(=O)N[C@@H](CCCCN)C(=O)N[C@@H](Cc4ccc(O)cc4)C(=O)N[C@@H](CCCCN)C(=O)O)NC(=O)[C@H](Cc4ccc(O)cc4)NC(=O)[C@@H]4CCCN4C1=O)NC(=O)[C@H](CCCCN)NC(=O)[C@H](CCCCN)NC(=O)CNC(=O)[C@H](Cc1c[nH]c4ccccc14)NC(=O)[C@H](CO)NC3=O)C(=O)N[C@@H](CC(=O)O)C(=O)N[C@@H](CC(C)C)C(=O)N[C@@H](CC(=O)O)C(=O)N[C@@H](CC(N)=O)C(=O)N[C@@H](Cc1ccccc1)C(=O)N[C@@H](Cc1ccc(O)cc1)C(=O)N2 [K1(K2L4)] (H-DCAKEGEVCSWGKKCCDLDNFYCPLAFIPYCKKYK-OH; disulfide 2-16, 9-23, 15-31) | (0.90 ± 0.04) × 10^6
CC[C@H](C)[C@@H]1NC(=O)[C@H](Cc2ccccc2)NC(=O)[C@H](CCC(=O)O)NC(=O)[C@H](CCSC)NC(=O)[C@@H]2CCCN2C(=O)[C@@H]2CSSC[C@@H]3NC(=O)[C@H](C(C)C)NC(=O)[C@H](CCC(=O)O)NC(=O)CNC(=O)[C@H](CCC(=O)O)NC(=O)[C@H](CCCCN)NC(=O)[C@H](C)NC(=O)[C@@H](NC(=O)[C@@H](N)CC(=O)O)CSSC[C@H](NC(=O)[C@H](CSSC[C@@H](C(=O)N[C@@H](CCCCN)C(=O)N[C@@H](CCCCN)C(=O)N[C@@H](Cc4ccc(O)cc4)C(=O)N[C@@H](CCCCN)C(=O)O)NC(=O)[C@H](Cc4c[nH]cn4)NC(=O)[C@@H]4CCCN4C1=O)NC(=O)[C@H](CCCCN)NC(=O)[C@H](CCCCN)NC(=O)CNC(=O)[C@H](Cc1c[nH]c4ccccc14)NC(=O)[C@H](CO)NC3=O)C(=O)N[C@@H](Cc1c[nH]cn1)C(=O)NCC(=O)N[C@@H](CC(C)C)C(=O)N[C@@H](CC(=O)O)C(=O)N2 [K1(K2L3)] (H-DCAKEGEVCSWGKKCCHGLDCPMEFIPHCKKYK-OH; disulfide 2-16, 9-21, 15-29) | (1.02 ± 0.04) × 10^4
